Each block holds one molecule with its values, some of them ahead of it. Calls of active or inactive are those of the source. The rule behind the calls is not given here.
Key:
Carbonic anhydrase 9 [1] = target: T1, Carbonic anhydrase 9 (Homo sapiens, UniProt Q16790);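 also: esterase activity of the enzyme on p-nitrophenyl acetate, followed by UV-Vis spectrophotometry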
Description: Inhibition of human carbonic anhydrase 9 using p-nitrophenyl acetate as substrate by UV-VIS spectrophotometric analysis

[2] = target: Carbonic anhydrase 5A, mitochondrial (Homo sapiens, UniProt P35218); test: Inhibition of human carbonic anhydrase 5A using p-nitrophenyl acetate as substrate by UV-VIS spectrophotometric analysis
Chain of Carbonic anhydrase 5A, mitochondrial (P35218 whole entry): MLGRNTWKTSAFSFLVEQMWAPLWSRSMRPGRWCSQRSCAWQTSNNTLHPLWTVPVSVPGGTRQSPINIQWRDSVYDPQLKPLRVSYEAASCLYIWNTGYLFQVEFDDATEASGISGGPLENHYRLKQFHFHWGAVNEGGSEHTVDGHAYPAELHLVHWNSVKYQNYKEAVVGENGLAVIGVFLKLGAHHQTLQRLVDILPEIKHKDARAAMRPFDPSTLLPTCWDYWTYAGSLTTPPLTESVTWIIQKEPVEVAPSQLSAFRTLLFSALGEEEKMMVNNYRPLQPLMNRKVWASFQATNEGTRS

Homo sapiens [3] = organism: Homo sapiens; test: Selectivity index, ratio of IC50 for human carbonic anhydrase 2 using p-nitrophenyl acetate as substrate to IC50 for human carbonic anhydrase 9 using p-nitrophenyl acetate as substrate
Homo sapiens [4] = organism: Homo sapiens; test: Selectivity index, ratio of IC50 for human carbonic anhydrase 2 using p-nitrophenyl acetate as substrate to IC50 for human carbonic anhydrase 5A using p-nitrophenyl acetate as substrate by
Carbonic anhydrase 2 = Carbonic anhydrase 2 (Homo sapiens, UniProt P00918); test: Inhibition of human carbonic anhydrase 2 using p-nitrophenyl acetate as substrate by UV-VIS spectrophotometric analysis
HepG2 [5] = test: Effect on ephithelial-mesenchymal transition in human HepG2 cells assessed as decrease in slug expression at IC50 concentration after 48 hrs by immunoblotting analysis; format: functional, cell-based
HT-29 [6] = test: Induction of apoptosis in human HT-29 cells assessed as viable cells at IC50 concentration after 24 hrs by Annexin V-FITC/propidium iodide staining based flow cytometry (reference value: 98.5%); format: functional
HT-29 [7] = test: Inhibition of colony formation in human HT-29 cells at IC50 concentration after 10 days by crystal violet staining based colony formation assay; format: functional, cell-based
HepG2 [8] = test: Induction of apoptosis in human HepG2 cells assessed as increase in cleaved PARP expression at IC50 concentration after 48 hrs by immunoblotting analysis; format: functional, cell-based
Albumin = Albumin (Homo sapiens, UniProt P02768); test: Binding affinity to human serum albumin assessed as decrease in emission intensity by fluorescence emission spectrum based Stern-Volmer method; format: ADME; settings: isolated protein
Chain of Albumin (P02768 whole entry): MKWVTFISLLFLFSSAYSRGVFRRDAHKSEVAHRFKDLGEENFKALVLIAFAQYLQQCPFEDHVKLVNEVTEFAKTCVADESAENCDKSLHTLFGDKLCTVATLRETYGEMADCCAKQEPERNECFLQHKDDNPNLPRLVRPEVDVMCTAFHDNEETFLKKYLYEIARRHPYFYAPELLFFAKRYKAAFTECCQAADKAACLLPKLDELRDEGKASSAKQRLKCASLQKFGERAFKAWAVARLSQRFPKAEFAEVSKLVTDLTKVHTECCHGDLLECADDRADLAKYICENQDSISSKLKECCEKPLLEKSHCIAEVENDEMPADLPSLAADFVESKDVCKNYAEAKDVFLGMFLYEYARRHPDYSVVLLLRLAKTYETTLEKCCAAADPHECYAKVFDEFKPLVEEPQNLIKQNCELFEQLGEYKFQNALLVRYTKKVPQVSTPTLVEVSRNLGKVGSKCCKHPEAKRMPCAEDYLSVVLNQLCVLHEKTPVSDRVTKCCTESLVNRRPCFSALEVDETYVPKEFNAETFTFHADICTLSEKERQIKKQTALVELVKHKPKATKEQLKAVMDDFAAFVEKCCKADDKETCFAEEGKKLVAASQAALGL

HT-29 [9] = test: Cytotoxicity against human HT-29 cells assessed as reduction in cell viability after 48 hrs by MTT assay; format: functional, cell-based; settings: HT-29, 48 h
HepG2 [10] = test: Effect on ephithelial-mesenchymal transition in human HepG2 cells assessed as increase in E-cadherin expression at IC50 concentration after 48 hrs by immunoblotting analysis; format: functional, cell-based
HepG2 [11] = test: Induction of apoptosis in human HepG2 cells assessed as late apoptotic cells at IC50 concentration after 24 hrs by Annexin V-FITC/propidium iodide staining-based flow cytometric analysis (reference value: 0%); format: functional
HT-29 [12] = test: Induction of apoptosis in human HT-29 cells assessed as early apoptotic cells at IC50 concentration after 24 hrs by Annexin V-FITC/propidium iodide staining based flow cytometry (reference value: 0.73%); format: functional
HepG2 [13] = test: Inhibition of colony formation in human HepG2 cells at IC50 concentration after 10 days by crystal violet staining based colony formation assay; format: functional, cell-based
HepG2 [14] = test: Effect on ephithelial-mesenchymal transition in human HepG2 cells assessed as decrease in snail expression at IC50 concentration after 48 hrs by immunoblotting analysis; format: functional, cell-based
HT-29 [15] = test: Down regulation of carbonic anhydrase 9 mRNA expression in human HT-29 cells by RT-PCR analysis; format: functional, cell-based
Carbonic anhydrase 9 [16] = target: T1, Carbonic anhydrase 9; test: Binding affinity to human carbonic anhydrase 9 assessed as dissociation constant by isothermal titration calorimetric assay
HepG2 [17] = test: Down regulation of carbonic anhydrase 9 protein expression in human HepG2 cells by immunoblotting analysis; format: functional, cell-based
HT-29 [18] = test: Effect on ephithelial-mesenchymal transition in human HT-29 cells assessed as decrease in slug expression at IC50 concentration after 48 hrs by immunoblotting analysis; format: functional, cell-based
HepG2 [19] = test: Down regulation of HIF1-alpha protein expression in human HepG2 cells by immunoblotting analysis; format: functional, cell-based
HT-29 [20] = test: Effect on ephithelial-mesenchymal transition in human HT-29 cells assessed as decrease in snail expression at IC50 concentration after 48 hrs by immunoblotting analysis; format: functional, cell-based
HepG2 [21] = test: Down regulation of carbonic anhydrase 9 mRNA expression in human HepG2 cells by RT-PCR analysis; format: functional, cell-based
HepG2 [22] = test: Induction of apoptosis in human HepG2 cells assessed as necrotic cells at IC50 concentration after 24 hrs by Annexin V-FITC/propidium iodide staining-based flow cytometric analysis (reference value: 1.14%); format: functional
HepG2 [23] = test: Induction of apoptosis in human HepG2 cells assessed as viable cells at IC50 concentration after 24 hrs by Annexin V-FITC/propidium iodide staining based flow cytometry (reference value: 98.9%); format: functional
HT-29 [24] = test: Down regulation of HIF1-alpha protein expression in human HT-29 cells by immunoblotting analysis; format: functional, cell-based
HepG2 [25] = test: Antimigratory activity against human HepG2 cells assessed as inhibition of cell migration at IC50 concentration after 24 hrs by crystal violet staining microscopy based transwell migration assay; format: functional
HepG2 [26] = test: Induction of apoptosis in human HepG2 cells assessed as early apoptotic cells at IC50 concentration after 24 hrs by Annexin V-FITC/propidium iodide staining based flow cytometry (reference value: 0%); format: functional
HT-29 [27] = test: Antimigratory activity against human HT-29 cells assessed as inhibition of cell migration at IC50 concentration after 24 hrs by crystal violet staining microscopy based transwell migration assay; format: functional
HepG2 [28] = test: Induction of apoptosis in human HepG2 cells at 11.22 uM after 24 hrs by Annexin V-FITC/propidium iodide staining based flow cytometry relative to control; format: functional
HEK293 = test: Cytotoxicity against HEK293 cells assessed as reduction in cell viability measured after 48 or 72 hrs by MTT assay; format: cell-based; settings: human, hek293, 72 h
HT-29 [29] = test: Down regulation of carbonic anhydrase 9 protein expression in human HT-29 cells by immunoblotting analysis; format: functional, cell-based
HT-29 [30] = test: Induction of apoptosis in human HT-29 cells at 8.44 uM after 24 hrs by Annexin V-FITC/propidium iodide staining based flow cytometry relative to control; format: functional
HT-29 [31] = test: Induction of apoptosis in human HT-29 cells assessed as necrotic cells at IC50 concentration after 24 hrs by Annexin V-FITC/propidium iodide staining based flow cytometry (reference value: 0.68%); format: functional
HT-29 [32] = test: Induction of apoptosis in human HT-29 cells assessed as increase in cleaved PARP expression at IC50 concentration after 48 hrs by immunoblotting analysis; format: functional, cell-based
HT-29 [33] = test: Induction of apoptosis in human HT-29 cells assessed as late apoptotic cells at IC50 concentration after 24 hrs by Annexin V-FITC/propidium iodide staining based flow cytometry (reference value: 0.089%); format: functional
HT-29 [34] = test: Effect on ephithelial-mesenchymal transition in human HT-29 cells assessed as decrease in Zeb1 expression at IC50 concentration after 48 hrs by immunoblotting analysis; format: functional, cell-based
HepG2 [35] = test: Cytotoxicity against human HepG2 cells assessed as reduction in cell viability after 48 hrs by MTT assay; format: functional, cell-based; settings: HepG2, 48 h
HepG2 [36] = test: Effect on ephithelial-mesenchymal transition in human HepG2 cells assessed as decrease in Zeb1 expression at IC50 concentration after 48 hrs by immunoblotting analysis; format: functional, cell-based
HT-29 [37] = test: Effect on ephithelial-mesenchymal transition in human HT-29 cells assessed as increase in E-cadherin expression at IC50 concentration after 48 hrs by immunoblotting analysis; format: functional, cell-based

IC50 (Carbonic anhydrase 9 [1]): 5.24 µM
Compound: COc1cc(/C=C/C(=O)O)ccc1OCc1cn(-c2cccc(C)c2)nn1

Ka (Albumin): 5.46 ×10⁴ /M | Kd (Carbonic anhydrase 9 [16]): 29 µM | IC50 [2]: 1.1 µM | IC50 (Carbonic anhydrase 9 [1]): 0.024 µM | IC50 (Carbonic anhydrase 2): 1.99 µM
Compound: COc1cc(/C=C/C(=O)O)ccc1OCc1cn(-c2cccc([N+](=O)[O-])c2)nn1
Activity (HepG2 [5]): Active | Activity (HT-29 [6]): 75.6% | inhibition (HT-29 [7]): Active | Activity (HepG2 [8]): Active | IC50 (HT-29 [9]): 8.44 µM | Activity (HepG2 [10]): Active | Activity (HepG2 [11]): 6.6% | Activity (HT-29 [12]): 2.29% | inhibition (HepG2 [13]): Active | Activity (HepG2 [14]): Active | Activity (HT-29 [15]): Active | Activity (HepG2 [17]): Active | Activity (HT-29 [18]): Active | Activity (HepG2 [19]): Active | Activity (HT-29 [20]): Active | Activity (HepG2 [21]): Active | Activity (HepG2 [22]): 10.3% | Activity (HepG2 [23]): 80.9% | Activity (HT-29 [24]): Active | Activity (HepG2 [25]): Active | Activity (HepG2 [26]): 2.17% | Activity (HT-29 [27]): Active | Activity (HepG2 [28]): 19.22% | Activity (HEK293): Non-Toxic | Activity (HT-29 [29]): Active | Activity (HT-29 [30]): 24.44% | Activity (HT-29 [31]): 11.6% | Activity (HT-29 [32]): Active | Activity (HT-29 [33]): 10.5% | Activity (HT-29 [34]): Active | IC50 (HepG2 [35]): 11.2 µM | Activity (HepG2 [36]): Active | Activity (HT-29 [37]): Active

IC50 (Carbonic anhydrase 9 [1]): 12.2 µM
Compound: COc1cc(/C=C/C(=O)O)ccc1OCc1cn(-c2cccc(F)c2)nn1

IC50 (Carbonic anhydrase 9 [1]): 1.37 µM
Compound: COc1cc(/C=C/C(=O)O)ccc1OCc1cn(-c2cccc(Cl)c2)nn1

IC50 (Carbonic anhydrase 9 [1]): 1.96 µM
Compound: COc1cccc(-n2cc(COc3ccc(/C=C/C(=O)O)cc3OC)nn2)c1

IC50 (Carbonic anhydrase 9 [1]): 4.22 µM
Compound: COc1cc(/C=C/C(=O)O)ccc1OCc1cn(-c2ccc(C)cc2)nn1

IC50 [2]: > 20 µM | IC50 (Carbonic anhydrase 9 [1]): > 20 µM | IC50 (Carbonic anhydrase 2): > 20 µM
Compound: COc1cc(/C=C/C(=O)O)ccc1OCc1cn(-c2ccccc2)nn1

IC50 (Carbonic anhydrase 9 [1]): 3.64 µM
Compound: COc1cc(/C=C/C(=O)O)ccc1OCc1cn(-c2ccccc2C)nn1

Continued, molecule first:

Compound: COc1cc(/C=C/C(=O)O)ccc1OCc1cn(-c2ccccc2F)nn1
IC50 (Carbonic anhydrase 9 [1]): 8.94 µM

Compound: COc1cc(/C=C/C(=O)O)ccc1OCc1cn(-c2ccc(F)cc2)nn1
IC50 (Carbonic anhydrase 9 [1]): 7.64 µM

Compound: COc1cc(/C=C/C(=O)O)ccc1O [FERULATE]
IC50 [2]: 8.86 µM | IC50 (Carbonic anhydrase 9 [1]): 9.39 µM | Ratio IC50 (Homo sapiens [3]): 0.7 | Ratio IC50 (Homo sapiens [4]): 0.7 | IC50 (Carbonic anhydrase 2): 6.44 µM

Compound: COc1cc(/C=C/C(=O)O)ccc1OCc1cn(-c2ccc(Cl)cc2)nn1
IC50 (Carbonic anhydrase 9 [1]): 0.771 µM

Compound: COc1cc(/C=C/C(=O)O)ccc1OCc1cn(-c2ccc([N+](=O)[O-])cc2)nn1
IC50 (Carbonic anhydrase 9 [1]): 1.45 µM

Compound: COc1ccc(-n2cc(COc3ccc(/C=C/C(=O)O)cc3OC)nn2)cc1
IC50 (Carbonic anhydrase 9 [1]): 4.76 µM

Compound: COc1cc(/C=C/C(=O)O)ccc1OCc1cn(-c2ccc(C(=O)O)cc2)nn1
IC50 (Carbonic anhydrase 9 [1]): 0.92 µM

Compound: COc1cc(/C=C/C(=O)O)ccc1OCc1cn(-c2ccccc2OC)nn1
IC50 (Carbonic anhydrase 9 [1]): 2.6 µM

Compound: COc1cc(/C=C/C(=O)O)ccc1OCc1cn(-c2ccccc2Cl)nn1
IC50 (Carbonic anhydrase 9 [1]): 14.5 µM

Compound: COc1cc(/C=C/C(=O)O)ccc1OCc1cn(-c2ccccc2[N+](=O)[O-])nn1
IC50 (Carbonic anhydrase 9 [1]): 2.44 µM

From ChEMBL document CHEMBL4619721, “Design, synthesis & biological evaluation of ferulic acid-based small molecule inhibitors against tumor-associated carbonic anhydrase IX” (Bioorg Med Chem, 2020)
